In patent US20060111287A1, “Acetylated protein” (priority 2002, published 2006):
“Also recorded” adds a separate entry of the source. Like-named read-outs stand apart in the source and are kept apart here.

Legend:
3T3 cells = experiment: HMGB1 acetylation pattern by 2D gel electrophoresis and anti-HMGB1 blot after deacetylase inhibitors; format: cell-based, mouse; conditions: for hyperacetylation of HMGB1: cell lines with low complexity of HMGB1 acetylation (3T3 mouse fibroblasts, HeLa cells, HEK cells)
Method: (C) Most cell lines contain 2 isoforms of HMGB1, and the protein can be hyperacetylated with TSA treatment. 3T3 cells were incubated for 6 hours in DMEM, or DMEM supplemented with 10 ng/ml TSA, then collected and lysed.
About 50 μg of purified HMGB1 or about 250 μg of total cellular protein were added to 350 μl of rehydration buffer (RB), containing 8 M urea, 2% CHAPS, 20 mM dithioerythritol (DTE), 0.8% IPG buffer (carrier ampholytes, pH 3-10 non-linear or pH 4-7 linear). Samples were applied on 18 cm polyacrylamide gel strips (pH range: 3-10 NL, or pH 4-7 L). Isoelectrophocusing (IEF) was performed in IPGphor (Pharmacia Biotech). IEF was stopped at 75000-90000 VoltHours. Second dimension runs were performed using a Protean II apparatus (Bio-Rad). After IEF, strips were soaked first in equilibration buffer (EB: 6 M urea, 3% SDS, 375 mM Tris pH 8.6, 30% glycerol, 2% DTE), then in EB containing 3% iodoacetamide (LAA) and traces of bromophenol blue (BBP). Strips were then applied onto 10%-12% polyacrylamide gels. Gels were run at 90 V for about 16 hours, and were then either silver stained or transferred onto nitrocellulose membranes (ECL, Amersham) in 25 mM Tris pH 7.5, 0.192 M glycine, 20% methanol.

U937.12 cells [1] = experiment: HMGB1 relocation from nucleus to vesicles in LPS-challenged U937.12 cells (immunofluorescence); format: cell-based
Method: Fibroblasts and HeLa cells were cultured in Dulbecco's modified Eagle's medium (DMEM) supplemented with 10% fetal bovine serum (FBS, from Gibco), 100 IU/ml of penicillin and 100 μg/ml streptomycin, in 5% CO2 humidified atmosphere. HeLa cells and 3134 mouse fibroblasts were transfected by calcium phosphate co-precipitation. To express fluorescent proteins, 3×10^5 cells were plated in 6 cm dishes and were transiently transfected with 8 μg of the appropriate plasmid. Cells were observed 36 hours after transfection. […] About 24 hours after transfection, 3134 fibroblasts were treated for 3 hours with 10 ng/ml trichostatin A (TSA, Sigma) before fixing and imaging. Subclone 12[−] of U937 promoyelocitic cells, kindly provided by M. Alfano and G. Poli (HSR, Milano), was grown in RPMI medium (Gibco) supplemented with 10% FCS, L-glutamine, 100 U/ml penicillin 100 μg/ml streptomycin, exposed for 3 days to 0.1 μM vitamin D3 (Roche) to promote CD14 expression, and stimulated with 100 ng/ml LPS (Sigma catalogue #L4391) or with 10 ng/ml TSA for 3 hours. For the experiments with kinase inhibitors, cells were exposed to 1 μM U0126, 10 μM SB203580 or 30 μM SP600125 (all from Calbiochem) at the same time as LPS, and lasting for 3 hours. Primary human monocytes, purified from peripheral blood (a kind gift from M. Iannacone, HSR), were maintained in RPMI medium supplemented as described above, and were activated with 100 ng/ml LPS.
Cell cultured in LabTek II chambers (Nalgene) were directly fixed in 3.7% paraformaldehyde (PFA) in PHEM buffer (36.8 g/l PIPES, 13 g/l HEPES, 7.6 g/l EGTA, 1.99 g/l MgSO4, buffered to pH 7.0 with KOH) for 10 minutes at room temperature. After fixation, cells were washed with PBS and incubated for 3 minutes at 4° C. with HEPES-based permeabilization buffer containing 300 mM sucrose and 0.2% Triton X-100. Fifteen minutes of incubation in blocking solution (BlS, 0.2% BSA in PBS) followed. Primary antibodies were then diluted in BIS to the suitable final concentration and incubation was prolonged for 1 hour at room temperature. After 3 rinses with BlS, cells were incubated with secondary antibodies in BIS for one hour, washed three times with BlS, and then incubated with PBS containing 0.5 μg/ml Hoechst 33342. The polyclonal rabbit anti-HMGB1 was purchased from BD PharMingen (Torrey Pines, Calif.), and used at 1:1600 dilution. Goat polyclonal antibodies against rabbit IgG (H+L) conjugated to Alexa Fluor 594 (working dilution 1:1000) were purchased from Molecular Probes (Eugene, Oreg., USA).
The secretion of TNF-α, IL-1, IL-8, and PGE2 by LPS-stimulated monocytes can be blocked by inhibiting ERK phosphorylation (Scherle et al., 1998). […] U937.12 cells were exposed to 200 ng/ml LPS in the presence of 1 μM U0126 (a specific inhibitor of ERK phosphorylation), 30 μM SP600125 (a specific inhibitor of Jnk kinases) or 10 μM SB203580 (a specific inhibitor of the p38 kinases). Control cultures were not exposed to LPS, or exposed to LPS but no inhibitors.

3134 mouse fibroblasts = experiment: HMGB1-GFP relocation to the cytoplasm in fibroblasts after TSA; format: cell-based; conditions: 10 ng/ml TSA for 3 hours
Method: (§1) Fibroblasts and HeLa cells were cultured in Dulbecco's modified Eagle's medium (DMEM) supplemented with 10% fetal bovine serum (FBS, from Gibco), 100 IU/ml of penicillin and 100 μg/ml streptomycin, in 5% CO2 humidified atmosphere. HeLa cells and 3134 mouse fibroblasts were transfected by calcium phosphate co-precipitation. To express fluorescent proteins, 3×10^5 cells were plated in 6 cm dishes and were transiently transfected with 8 μg of the appropriate plasmid. Cells were observed 36 hours after transfection. The average amount of HMGB1-GFP in the cell population was between 1 and 3% of HMGB1 (as measured by immunoblotting with anti-HMGB1 antibodies). About 24 hours after transfection, 3134 fibroblasts were treated for 3 hours with 10 ng/ml trichostatin A (TSA, Sigma) before fixing and imaging. Subclone 12[−] of U937 promoyelocitic cells, kindly provided by M. Alfano and G. Poli (HSR, Milano), was grown in RPMI medium (Gibco) supplemented with 10% FCS, L-glutamine, 100 U/ml penicillin 100 μg/ml streptomycin, exposed for 3 days to 0.1 μM vitamin D3 (Roche) to promote CD14 expression, and stimulated with 100 ng/ml LPS (Sigma catalogue #L4391) or with 10 ng/ml TSA for 3 hours. For the experiments with kinase inhibitors, cells were exposed to 1 μM U0126, 10 μM SB203580 or 30 μM SP600125 (all from Calbiochem) at the same time as LPS, and lasting for 3 hours. […]

U937.12 cells [2] = experiment: HMGB1 relocation in U937.12 cells treated with TSA without LPS (immunofluorescence); format: cell-based; conditions: 10 ng/ml TSA for 3 hours, no LPS
Method: as §1

human monocytes = experiment: HMGB1 translocation to cytoplasmic vesicles in LPS-activated primary monocytes; format: cell-based; conditions: cycloheximide; time scale about 16-20 hours
Method: as §1, with “The average amount of HMGB1-GFP in the cell population was between 1 and 3% of HMGB1 (as measured by immunoblotting with anti-HMGB1 antibodies).” left out

[3] = test system: HMGB1 transfer between human and mouse nuclei; experiment: Heterokaryon assay: HMGB1 transfer from human to mouse nuclei; format: cell-based; conditions: for HMGB1 transfer between human and mouse nuclei in heterokaryons: 150 nM leptomycin B, 4 hours at 37° C. with cycloheximide
Text: (A) Heterokaryons were formed by fusing HMGB1-expressing HeLa cells (human) and Hmgb1−/− mouse embryonic fibroblasts. Human cytokeratin and HMGB1 were stained red and green, respectively, with specific antibodies; nuclei were stained blue with DAPI (or Hoechst). Cells with human cytokeratin staining and two nuclei, one of which with bright DAPI-positive heterochromatic spots characteristic of mouse cells, were considered heterokaryons.
Heterokaryons were produced and scored as in panel A; 150 heterokaryons were evaluated for HMGB1 transfer into recipient mouse nuclei for each of the 2 classes (leptomycin and control). The 50% level is equivalent to complete equilibration.
HeLa cells were plated on glass coverslips in a 6-well dish (100 000 cells/dish). After 16 hours, 200 000 Hmgb1−/− mouse fibroblasts were plated on the same coverslips. Following a 3-hour incubation in the presence of 100 μg/ml cycloheximide, the cells were washed with PBS and treated with 100 μl of prewarmed 50% PEG-6000 in PBS for 1 min. After 3 washes with PBS, the cells were incubated with DMEM containing 100 μg/ml cycloheximide for 4 hours, and then fixed with 4% paraformaldehyde. Immunofluorescence was performed using anti-human cytokeratin (Santa Cruz) and anti-HMGB1 antibodies, and chromatin was visualized by DAPI staining. When indicated, 150 nM leptomycin B (a kind gift of Barbara Wolff, Novartis, Vienna) was added to the medium together with cycloheximide.

CRM1 exportin = CRM1 exportin (Homo sapiens, UniProt O14980); experiment: Pull down assay with labeled CRM1; conditions: 0.4 μM (400 nM) leptomycin B in the binding buffer
CRM1 exportin, sequence (O14980 whole entry): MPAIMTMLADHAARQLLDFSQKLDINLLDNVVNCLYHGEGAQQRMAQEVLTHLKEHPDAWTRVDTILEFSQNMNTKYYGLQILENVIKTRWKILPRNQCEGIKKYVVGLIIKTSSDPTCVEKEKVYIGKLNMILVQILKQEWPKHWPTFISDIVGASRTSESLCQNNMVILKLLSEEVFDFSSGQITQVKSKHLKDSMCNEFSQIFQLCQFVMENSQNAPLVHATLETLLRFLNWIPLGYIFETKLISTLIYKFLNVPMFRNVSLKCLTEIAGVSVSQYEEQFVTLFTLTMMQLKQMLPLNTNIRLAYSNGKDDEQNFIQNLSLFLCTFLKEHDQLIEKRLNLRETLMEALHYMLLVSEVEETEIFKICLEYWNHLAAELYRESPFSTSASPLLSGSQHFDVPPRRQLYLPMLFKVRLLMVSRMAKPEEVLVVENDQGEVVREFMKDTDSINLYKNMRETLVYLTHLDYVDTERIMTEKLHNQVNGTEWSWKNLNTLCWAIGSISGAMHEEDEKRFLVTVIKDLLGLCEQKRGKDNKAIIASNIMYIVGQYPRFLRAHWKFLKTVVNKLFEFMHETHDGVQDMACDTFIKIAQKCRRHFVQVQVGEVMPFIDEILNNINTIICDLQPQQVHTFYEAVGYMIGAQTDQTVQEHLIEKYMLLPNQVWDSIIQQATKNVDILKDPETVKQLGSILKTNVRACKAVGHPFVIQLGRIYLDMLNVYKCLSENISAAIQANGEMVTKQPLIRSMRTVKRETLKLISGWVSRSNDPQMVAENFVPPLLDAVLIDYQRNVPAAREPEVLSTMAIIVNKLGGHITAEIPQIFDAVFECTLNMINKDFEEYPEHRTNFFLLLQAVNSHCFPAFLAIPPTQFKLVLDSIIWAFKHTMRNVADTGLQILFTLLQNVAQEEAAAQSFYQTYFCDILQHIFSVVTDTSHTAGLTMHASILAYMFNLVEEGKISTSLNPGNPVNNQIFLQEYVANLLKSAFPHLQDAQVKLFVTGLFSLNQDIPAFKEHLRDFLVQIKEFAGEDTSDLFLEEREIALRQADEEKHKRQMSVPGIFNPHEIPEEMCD
Text: Labeled CRM1 protein was mixed with beads bearing GST-NS2 immobilized onto Glutathione Sepharose or BSA, tailless HMGB1 (boxA+B) or individual boxes covalently linked to Sepharose. Aliquots representing the input material (In), the fourth wash (W4), the material remaining bound to beads after 5 washes (bound, B), and the unbound material (output, O) were electrophoresed and autoradiographed.
CRM1 protein was in vitro transcribed-translated with the TnT Coupled Reticulocyte Lysate System (Promega) following the manifacturer's protocol, using pSGCRM1 plasmid as template. Seven μl of freshly made [^35S]-Met labeled CRM1 were incubated in 15 μl RAN Buffer (50 mM Tris-HCl pH 7.5, 200 mM NaCl, 2 mM MgCl2, 10% glycerol), 5 μl of 6×CRM1 buffer (20 mM HEPES-KOH pH 7.5, 80 mM CH3COOK, 4 mM Mg (CH3COO)2, 250 mM sucrose, 2.5 mM DTT), 1 mg/ml BSA, 400 nM Leptomycin B where indicated, and approximately 10 μl of beads bearing immobilized GST-NS2, BSA, recombinant tailless HMGB1 (HMGB1ΔC, Muller et al., 2001b), boxA, or boxB. GST-NS2 was coupled to Gluthatione Sepharose (Amersham), the other proteins were covalently cross-linked to Activated Sepharose-CH (Amersham). The incubation was for one hour at 4° C. on a rotating wheel. The beads were pelleted by centrifugation, supernatants were dried in Savant. […]

## C[C@@H]1NC(=O)[C@H]2CCCN2C(=O)[C@H](CCCCCC(=O)[C@@H]2CO2)NC(=O)[C@@H](C)NC1=O [HC-toxin]
3T3 cells
  hyperacetylation of HMGB1: hyperacetylation could be obtained

## C[S+]([O-])c1ccc(-c2nc(-c3ccncc3)c(-c3ccc(F)cc3)[nH]2)cc1 (centres unmarked) [SB203580]
U937.12 cells [1]; 10 μM SB203580 together with LPS, 3 hours
  HMGB1 relocation to vesicles after LPS: has no effect; also recorded: substantial

## CC(/C=C/C(=O)NO)=C\[C@@H](C)C(=O)c1ccc(N(C)C)cc1 [TSA, trichostatin A]
3T3 cells; 3T3 cells, 10 ng/ml TSA, 6 hours, control 2 spots
  HMGB1 isoform spots on 2D gel (hyperacetylation): several HMGB1 spots appeared
3T3 cells
  hyperacetylation of HMGB1: hyperacetylation could be obtained
3134 mouse fibroblasts
  relocation of HMGB1-GFP to the cytoplasm: causes a significant relocation of HMGB1-GFP to the cytoplasm; also recorded: sufficient to relocate a significant amount of HMGB1 to the cytoplasm
U937.12 cells [2]
  cytoplasmic expansion: do not show cytoplasmic expansion
  relocation of HMGB1 to cytoplasmic vesicles: a fraction of HMGB1 is relocalized to cytoplasmic vesicles; also recorded: a fraction of HMGB1 started to shift to cytoplasmic vesicles

## N#CC(=C(/N)Sc1ccccc1N)/C(C#N)=C(\N)Sc1ccccc1N [U0126]
U937.12 cells [1]
  HMGB1 relocation to vesicles after LPS: blocks it completely; also recorded: inhibition of HMGB1 translocation; also recorded: almost completely blocked
  HMGB1 translocation after LPS stimulation after removal of the inhibitor: restored

## C[C@@H]1C[C@@H]([C@H](O)CC2CC(=O)NC(=O)C2)C(=O)[C@@H](C)C1 [cycloheximide]
U937.12 cells [1]; 10 μM cycloheximide starting 20 minutes prior to LPS addition
  HMGB1 translocation after LPS: does not block HMGB1 translocation
U937.12 cells [1]; 10 μg/ml cycloheximide
  HMGB1 translocation to vesicles when LPS is added: still translocate HMGB1 to vesicles
Human monocytes
  HMGB1 translocation to cytoplasmic vesicles after LPS: not inhibited

## CCC(=C/[C@H](C)C/C=C/C(C)=C/[C@@H](C)C(=O)[C@@H](C)[C@H](O)[C@@H](C)C/C(C)=C/C(=O)O)/C=C/[C@@H]1OC(=O)C=C[C@@H]1C [leptomycin B]
[3]; listed as Leptomycin B
  HMGB1 transfer between human and mouse nuclei in heterokaryons: substantially reduces, but does not abolish
[3]; listed as leptomycin
  HMGB1 transfer between human and mouse nuclei in heterokaryons: strongly reduced
[3]; vast majority of leptomycin-treated heterokaryons, after 4 hours, 50% level = complete equilibration
  HMGB1 migrated to the mouse nucleus: less than 5%
CRM1 exportin
  binding of labeled CRM1 to GST-NS2 and the HMG boxes (BoxA+B): did not bind
CRM1 exportin; listed as leptomicin B
  binding of labeled CRM1 to GST-NS2 and the HMG boxes (BoxA+B): prevents binding of CRM1
U937.12 cells [1]; 150 nM leptomycin together with LPS, 3 hours
  HMGB1 relocation to vesicles after LPS: partially blocked
U937.12 cells [1]; 150 nM leptomycin together with LPS, 3 hours, listed as leptomycin
  HMGB1 relocation to vesicles after LPS: blocks HMGB1 relocation almost completely

## CCCC(=O)[O-].[Na+] [sodium butyrate]
3T3 cells
  hyperacetylation of HMGB1: hyperacetylation could be obtained
